In patent US11807693B2 (priority 2014, dated 2023):
Starred links: 1 amine or outer side, 2 acyl side, 3 side chain; linkers in the order of their positions; H or OH if unused. Non-standard residues stand in square brackets, D forms with d. Residues, ends and D or L forms follow the SMILES beside them. *: point of attachment. dBip = N[C@H](Cc1ccc(-c2ccccc2)cc1)C(=O)O; Phe(4-Cl) = N[C@@H](Cc1ccc(Cl)cc1)C(=O)O; γGlu = O=C(O)[C@H](CCC(=O)[*:2])N[*:1]; NMeR = CN[C@@H](CCCNC(=N)N)C(=O)O; Tridecanoyl = CCCCCCCCCCCCC(=O)*; hArg = N=C(N)NCCCC[C@H](N)C(=O)O; Cha = N[C@@H](CC1CCCCC1)C(=O)O; β3hV = CC(C)[C@H](N)CC(=O)O; Nle = CCCC[C@H](N)C(=O)O; AEEA = NCCOCCOCC(=O)O; βAla = NCCC(=O)O

Experiments:
[1] = In vitro stability in rat plasma; format: in vitro ADME
Experimental: (§1) Apelin peptides were spiked into rat plasma, liver homogenate, and kidney homogenate, which were obtained from commercial sources, to a final concentration of 5 μM. The samples were then incubated at 37° C. over a period of 4 hr. […] In a typical experiment, an aliquot of 100 μL of sample was taken from the incubation vial, followed by addition of 300 μL of MeOH containing internal standard. The quenched sample was centrifuged at 5500 g for 15 min after 15 min vortex in room temperature. The supernatant was then analyzed by high resolution LC-MS. […] In vitro plasma, […], and kidney stability results are shown below in Table 14.

[2] = In vitro stability in rat liver homogenate; format: in vitro ADME; conditions: tissue homogenate
Experimental: as §1

| remaining at 4 h, 5 μM [1] [%] | remaining at 4 h, 5 μM [2] [%] | Structure (SMILES) |
| --- | --- | --- |
| 74 | < 1 | CCCCCCCCCCCCC(=O)N[C@@H](CCC(=O)NCCOCCOCC(=O)NCCOCCOCC(=O)N[C@@H](CCC(N)=O)C(=O)N[C@H](CCCNC(=N)N)C(=O)N1CCC[C@H]1C(=O)N[C@@H](CCCCNC(=N)N)C(=O)N[C@@](C)(CC(C)C)C(=O)N[C@@H](CO)C(=O)N[C@@H](Cc1c[nH]cn1)C(=O)N[C@@H](CCCCN)C(=O)NCC(=O)N1CCC[C@H]1C(=O)N[C@@H](CCCC)C(=O)N1CCC[C@H]1C(=O)N[C@@H](Cc1ccc(Cl)cc1)C(=O)O)C(=O)O [compound 485] |
| 6.3 | < 1 | CCCC[C@H](NC(=O)[C@@H]1CCCN1C(=O)CNC(=O)[C@H](CCCCN)NC(=O)[C@H](Cc1c[nH]cn1)NC(=O)[C@H](CO)NC(=O)[C@H](CC(C)C)NC(=O)[C@H](CCCNC(=N)N)NC(=O)[C@@H]1CCCN1C(=O)[C@H](CCCNC(=N)N)NC(=O)[C@H](CCC(N)=O)NC(=O)[C@H](CCCNC(=N)N)NC(C)=O)C(=O)N1CCC[C@H]1C(=O)N[C@H](Cc1ccc(-c2ccccc2)cc1)C(=O)O [compound 62] (Ac-RQRPRLSHKGP[Nle]P[dBip]-OH) |
| 25 | < 1 | CCCCCCCCCCCCC(=O)N[C@@H](CCC(=O)NCCOCCOCC(=O)NCCOCCOCC(=O)N[C@@H](CCC(N)=O)C(=O)N[C@H](CCCNC(=N)N)C(=O)N1CCC[C@H]1C(=O)N(C)[C@@H](CCCCNC(=N)N)C(=O)NC(CC(=O)N[C@@H](CO)C(=O)N[C@@H](Cc1c[nH]cn1)C(=O)N[C@@H](CCCCN)C(=O)NCC(=O)N1CCC[C@H]1C(=O)N[C@@H](CCCC)C(=O)N1CCC[C@H]1C(=O)N[C@@H](Cc1ccc(Cl)cc1)C(=O)O)C(C)C)C(=O)O (some centres unmarked) [compound 384] |
| 62 | < 1 | CCCCCCCCCCCCC(=O)N[C@@H](CCC(=O)NCCOCCOCC(=O)NCCOCCOCC(=O)N[C@@H](CCC(N)=O)C(=O)N[C@@H](CCCNC(=N)N)C(=O)N1CCC[C@H]1C(=O)N(C)[C@@H](CCCNC(=N)N)C(=O)N[C@@](C)(CC(C)C)C(=O)N[C@@H](CO)C(=O)N[C@@H](Cc1c[nH]cn1)C(=O)N[C@@H](CCCCN)C(=O)NCC(=O)N1CCC[C@H]1C(=O)N[C@@H](CCCC)C(=O)N1CCC[C@H]1C(=O)N[C@@H](Cc1ccc(Cl)cc1)C(=O)O)C(=O)O [compound 457] |
| 75 | < 1 | CCCCCCCCCCCCCCC(=O)N[C@@H](CCC(=O)NCCOCCOCC(=O)NCCOCCOCC(=O)N[C@@H](CCC(N)=O)C(=O)N[C@@H](CCCNC(=N)N)C(=O)N1CCC[C@H]1C(=O)N(C)[C@@H](CCCNC(=N)N)C(=O)N[C@@H](CC(C)C)C(=O)N[C@@H](CO)C(=O)N[C@@H](Cc1c[nH]cn1)C(=O)N[C@@H](CCCCN)C(=O)NCC(=O)N1CCC[C@H]1C(=O)N[C@@H](CCCC)C(=O)N1CCC[C@H]1C(=O)N[C@@H](Cc1ccc(Cl)cc1)C(=O)O)C(=O)O [compound 495] |
| 40 | < 1 | CCCCCCCCCCCCC(=O)N[C@@H](CCC(=O)NCCOCCOCC(=O)NCCOCCOCC(=O)N[C@@H](CCC(N)=O)C(=O)N[C@@H](CCCNC(=N)N)C(=O)N[C@@H](CCC(=O)O)C(=O)N(C)[C@@H](CCCNC(=N)N)C(=O)N[C@@H](CC(C)C)C(=O)N[C@@H](CO)C(=O)N[C@@H](Cc1c[nH]cn1)C(=O)N[C@@H](CCCCN)C(=O)NCC(=O)N1CCC[C@H]1C(=O)N[C@@H](CCCC)C(=O)N1CCC[C@H]1C(=O)N[C@@H](Cc1ccc(Cl)cc1)C(=O)O)C(=O)O [compound 476] |
| 37 | < 1 | CCCCCCCCCCCCC(=O)N[C@@H](CCC(=O)NCCOCCOCC(=O)NCCOCCOCC(=O)N[C@@H](CCC(N)=O)C(=O)N[C@@H](CCCCNC(=N)N)C(=O)N1CCC[C@H]1C(=O)N(C)[C@@H](CCCCNC(=N)N)C(=O)N[C@@H](CC(C)C)C(=O)N[C@@H](CO)C(=O)N[C@@H](Cc1c[nH]cn1)C(=O)N[C@@H](CCCCN)C(=O)NCC(=O)N1CCC[C@H]1C(=O)N[C@@H](CCCC)C(=O)N1CCC[C@H]1C(=O)N[C@@H](Cc1ccc(Cl)cc1)C(=O)O)C(=O)O [compound 483] |
| < 1 | < 1 | CCCC[C@H](NC(=O)[C@@H]1CCCN1C(=O)CNC(=O)[C@H](CCCCN)NC(=O)[C@H](Cc1c[nH]cn1)NC(=O)[C@H](CO)NC(=O)[C@H](CC(C)C)NC(=O)[C@H](CCCNC(=N)N)N(C)C(=O)[C@@H]1CCCN1C(=O)[C@H](CCCNC(=N)N)NC(=O)[C@H](CCC(N)=O)NC(=O)COCCOCCNC(=O)COCCOCCNC(=O)CC[C@H](NC(=O)CCCCCCC(=O)O)C(=O)O)C(=O)N1CCC[C@H]1C(=O)N[C@@H](Cc1ccc(Cl)cc1)C(=O)O [compound 508] |
| 62 | < 1 | CCCCCCCCCCCCC(=O)N[C@@H](CCC(=O)NCCOCCOCC(=O)NCCOCCOCC(=O)N[C@@H](CCC(N)=O)C(=O)N[C@@H](CCCNC(=N)N)C(=O)N1CCC[C@@]1(C)C(=O)N[C@@H](CCCCNC(=N)N)C(=O)N[C@@](C)(CC(C)C)C(=O)N[C@@H](CO)C(=O)N[C@@H](Cc1c[nH]cn1)C(=O)N[C@@H](CCCCN)C(=O)NCC(=O)N1CCC[C@H]1C(=O)N[C@@H](CCCC)C(=O)N1CCC[C@H]1C(=O)N[C@@H](Cc1ccc(Cl)cc1)C(=O)O)C(=O)O [compound 482] |
| 31 | < 1 | CCCCCCCCCCCCC(=O)N[C@@H](CCC(=O)NCCOCCOCC(=O)NCCOCCOCC(=O)N[C@@H](CCC(N)=O)C(=O)N[C@@H](CCCCNC(=N)N)C(=O)N1CCC[C@H]1C(=O)N(C)[C@@H](CCCNC(=N)N)C(=O)N[C@H](CC(=O)N[C@@H](CO)C(=O)N[C@@H](Cc1c[nH]cn1)C(=O)N[C@@H](CCCCN)C(=O)NCC(=O)N1CCC[C@H]1C(=O)N[C@@H](CCCC)C(=O)N1CCC[C@H]1C(=O)N[C@@H](Cc1ccc(Cl)cc1)C(=O)O)C(C)C)C(=O)O [compound 383] ({Tridecanoyl-γGlu-AEEA-AEEA}-Q[hArg]P[NMeR][β3hV]SHKGP[Nle]P[Phe(4-Cl)]-OH) |
| > 90 | < 1 | CCCCCCCCCCCCC(=O)N[C@@H](CCC(=O)NCCOCCOCC(=O)NCCOCCOCC(=O)N[C@@H](CCC(N)=O)C(=O)N[C@@H](CCCNC(=N)N)C(=O)N1CCC[C@H]1C(=O)N(C)[C@@H](CCCNC(=N)N)C(=O)N[C@@H](CC(C)C)C(=O)N[C@@H](CO)C(=O)N[C@@H](Cc1c[nH]cn1)C(=O)N[C@@H](CCCCN)C(=O)NCC(=O)N1CCC[C@H]1C(=O)N[C@@H](CCCC)C(=O)NCCC(=O)N[C@@H](Cc1ccc(Cl)cc1)C(=O)O)C(=O)O [compound 425] ({Tridecanoyl-γGlu-AEEA-AEEA}-QRP[NMeR]LSHKGP[Nle][βAla][Phe(4-Cl)]-OH) |
| 2.4 | – | CCCC[C@H](NC(=O)[C@@H]1CCCN1C(=O)CNC(=O)[C@H](CCCCN)NC(=O)[C@H](Cc1c[nH]cn1)NC(=O)[C@H](CO)NC(=O)[C@H](CC1CCCCC1)NC(=O)[C@H](CCCNC(=N)N)N(C)C(=O)[C@@H]1CCCN1C(=O)[C@H](CCCNC(=N)N)NC(=O)[C@H](CCC(N)=O)NC(=O)[C@H](CCCNC(=N)N)NC(C)=O)C(=O)N1CCC[C@H]1C(=O)N[C@@H](Cc1ccc(Cl)cc1)C(=O)O [compound 66] (Ac-RQRP[NMeR][Cha]SHKGP[Nle]P[Phe(4-Cl)]-OH) |
